Test results: patent US7935335B2, “Strains belonging to the genus Paenibacillus and method of controlling plant disease by using these strains or culture thereof” (Kaken Pharmaceutical Co., Ltd., priority 2004, dated 2011)

Experiments:
[1] = test system: Pseudomonas syringae pv. lachrymans; assay: Test Example 5: control effect of a culture broth on melon bacterial blight; type: in vivo; details: foliar spray of 2 mL of 2 ppm solution
Experimental: Each of nursery trays was filled with Aisai No. 1 (mfd. by Katakura Chikkarin Co., Ltd.) and a melon (cultivar: Arles) seedling was raised in each tray. In this case, a seed treatment plot was prepared by immersing melon seeds in a Petri dish containing 10 mL (10^8 spores/mL) of the culture broth of strain BS-0105 prepared in Production Example 2, followed by bacterization at 30° C. for 2 hours. After the development of a cotyledon, the seedling was potted in a 12-cm polyethylene pot filled with Aisai No. 1. When three true leaves were completely developed, the following plots were prepared: plots on which drench or foliar spray, respectively, treatment with 1 mL ([…]) of the culture broth of strain BS-0105 prepared in Production Example 2 was carried out, and a plot on which foliar spray of 2 mL of a 2 ppm solution of Acibenzolar-S-methyl was carried out. As to the inoculation of the pathogenic bacterium (Pseudomonas syringae pv. lachrymans), 5 days after the treatment, a liquid containing the bacterial blight bacterium previously cultured on a potato semisynthetic medium (a decoction consisting of 300 g of potato and 1 L of distilled water, calcium nitrate tetrahydrate 0.5 g, disodium hydrogenphosphate dodecahydrate 2 g, peptone 5 g, sucrose 20 g, powdered agar 15 g) was inoculated on the whole of each leaf by spraying so that the reverse side of the leaf might be mainly treated. Inspection for infection was carried out by counting lesions in each of leaves from second to fourth leaves 8 days after the inoculation with the pathogenic bacterium. The protective value was calculated from the number of the lesions by the following equation to make a comparison with respect to control effect. Protective value={1−(number of lesions on treated plot/number of lesions on untreated plot)}×100

parsley cultured cells = assay: Activity of inducing disease resistance: elicitor responsiveness of parsley cultured cells, phytoalexin detection by fluorescence; type: cell-based; details: 2.5 μM
Experimental: The activity of inducing disease resistance in plant of compound 1 and compound 2 according to the present invention was also evaluated according to the method of Siegrist, J. et al. The results are shown in Table 9.
(§1) The activity of inducing disease resistance in plant of each of compound 1 and compound 2 was evaluated in the same manner as in Evaluation Example 1 by adopting the method practiced in Evaluation Example 1, i.e., the method in which the elicitor responsiveness of parsley cultured cells was measured by the detection of phytoalexin using fluorescence.
as §1, with “inducing” for “inducing disease”, “resistance to” for “resistance in”, “plant diseases” for “plant”, “compound 3” for “compound 1”, “compound 4” for “compound 2”

CSC(=O)c1cccc2nnsc12 [Acibenzolar-S-methyl, S-methyl 1,2,3-benzothiazole-7-carboxylate]
Protective value Average [1]: 78.5
Protective value Fourth leaf [1]: 66.7
Protective value Second leaf [1]: 100.0
Protective value Third leaf [1]: 68.8
Relative fluorescence (parsley cultured cells; Evaluation Example 6, elicitor treatment No): 86.9
Relative fluorescence (parsley cultured cells; Evaluation Example 6, elicitor treatment Yes): 664.8
Relative fluorescence (parsley cultured cells; Evaluation Example 7, elicitor No): 0.8
Relative fluorescence (parsley cultured cells; Evaluation Example 7, elicitor Yes): 377.5
